Like-named read-outs stand apart in the source and are kept apart here.

Assay [1] deals with NCI-H1373 (human lung adenocarcinoma) cells. As to the kind of experiment: Cell proliferation assay (CellTiter-Glo), NCI-H1373. The settings on record: Homo sapiens, NCI-H1373, 144 h, read-out: NCI-H1373 GI50. Type of assay: cell-based.
The target of assay [2] is His-GST-PARP7 (Homo sapiens (Human), UniProt Q7Z3E1). Kind of assay: PARP7 biochemical assay. The settings on record: read-out: PARP7 IC50.
Sequence of His-GST-PARP7 (Q7Z3E1 whole entry): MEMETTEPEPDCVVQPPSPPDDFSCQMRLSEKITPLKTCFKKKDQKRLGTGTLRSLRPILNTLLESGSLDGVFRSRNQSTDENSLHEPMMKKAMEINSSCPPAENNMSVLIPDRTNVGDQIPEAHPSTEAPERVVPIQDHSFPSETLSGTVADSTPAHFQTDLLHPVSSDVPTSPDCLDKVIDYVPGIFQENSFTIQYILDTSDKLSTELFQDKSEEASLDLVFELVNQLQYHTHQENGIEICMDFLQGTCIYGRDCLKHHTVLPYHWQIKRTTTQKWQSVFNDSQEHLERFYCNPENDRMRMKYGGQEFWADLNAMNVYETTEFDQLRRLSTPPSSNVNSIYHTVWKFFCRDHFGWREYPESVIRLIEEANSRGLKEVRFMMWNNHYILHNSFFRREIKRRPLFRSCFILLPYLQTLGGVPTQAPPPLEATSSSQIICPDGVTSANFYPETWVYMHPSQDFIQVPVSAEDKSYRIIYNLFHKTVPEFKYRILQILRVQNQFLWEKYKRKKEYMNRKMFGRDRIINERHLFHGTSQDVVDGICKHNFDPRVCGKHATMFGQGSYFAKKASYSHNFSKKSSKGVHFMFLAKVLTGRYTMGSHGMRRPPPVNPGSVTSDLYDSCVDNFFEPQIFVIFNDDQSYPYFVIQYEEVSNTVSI

Regarding `COc1ccc2c(=O)[nH]nc(Cc3ccc(S(C)(=O)=O)c(C(=O)N4CCN(c5ccc(C#N)cn5)CC4)c3)c2c1` [Example 182, 6-(4-(5-((7-Methoxy-4-oxo-3,4-dihydrophthalazin-1-yl)methyl)-2-(methylsulfonyl)benzoyl)piperazin-1-yl)nicotinonitrile], the GI50 in assay [1] (6 days, CellTiter-Glo) was above 5000 nM. Besides, in assay [2], the IC50 was below 50 nM.
Turning to `C#CCN(C)c1ccc2c(=O)[nH]nc(Cc3ccc(F)c(C(=O)N4CCN(c5ccc(C#N)cn5)CC4)c3)c2c1` [Example 17, 6-(4-(2-Fluoro-5-((7-(methyl(prop-2-ynyl)amino)-4-oxo-3,4-dihydrophthalazin-1-yl)methyl)benzoyl)piperazin-1-yl)nicotinonitrile], the GI50 in assay [1] (6 days, CellTiter-Glo) was in the range of 1000 to 5000 nM. Also, the IC50 in assay [2] was below 50 nM.
Turning to `CC#Cc1ccc2c(=O)[nH]nc(Cc3ccc(F)c(C(=O)N4CCN(c5ccc(C#N)cn5)C(=O)C4(C)C)c3)c2c1` [Example 71, 6-(4-(2-Fluoro-5-((4-oxo-7-(prop-1-yn-1-yl)-3,4-dihydrophthalazin-1-yl)methyl)benzoyl)-3,3-dimethyl-2-oxopiperazin-1-yl)nicotinonitrile], the GI50 in assay [1] (6 days, CellTiter-Glo) is 1000 to 5000 nM. Moreover, the IC50 in assay [2] is below 50 nM.
For the compound `N#Cc1ccc(N2CCN(C(=O)c3cc(Cc4n[nH]c(=O)c5ccc(OCC6CC6)cc45)ccc3F)CC2)nc1` [Example 7, 6-(4-(5-((7-(Cyclopropylmethoxy)-4-oxo-3,4-dihydrophthalazin-1-yl)methyl)-2-fluorobenzoyl)piperazin-1-yl)nicotinonitrile], the GI50 in assay [1] was below 100 nM.
On to `O=C(c1cc(Cc2n[nH]c(=O)c3ccc(OC4CCC4)cc23)ccc1F)N1CCn2c(nnc2C(F)(F)F)C1` [Example 145, 6-cyclobutoxy-4-(4-fluoro-3-(3-(trifluoromethyl)-5,6,7,8-tetrahydro-[1,2,4]triazolo[4,3-a]pyrazine-7-carbonyl)benzyl)phthalazin-1(2H)-one], for which the GI50 in assay [1] (6 days, CellTiter-Glo) lay in the range of 1000 to 5000 nM. The IC50 in assay [2] was below 50 nM.
As for `CC#Cc1cc2c(Cc3ccc(F)c(C(=O)N4CCN(c5ccc(C#N)cn5)CC4)c3)n[nH]c(=O)c2cc1C` [Example 83, 6-(4-(2-Fluoro-5-((6-methyl-4-oxo-7-(prop-1-yn-1-yl)-3,4-dihydrophthalazin-1-yl)methyl)benzoyl)piperazin-1-yl)nicotinonitrile], the GI50 in assay [1] (6 days, CellTiter-Glo) lay within 100 to 1000 nM. Also, in assay [2], the IC50 is below 50 nM.
On the same counts, the results for `CC#Cc1ccc2c(=O)[nH]nc(Cc3ccc(F)c(C(=O)N4CCn5c(nnc5C5CC5)C4)c3)c2c1` [Example 63, 4-[[3-(3-cyclopropyl-6,8-dihydro-5H-[1,2,4]triazolo[4,3-a]pyrazine-7-carbonyl)-4-fluoro-phenyl]methyl]-6-prop-1-ynyl-2H-phthalazin-1-one] are above 5000 nM and below 50 nM.
For the compound `N#Cc1ccc(N2CCN(C(=O)c3cc(Oc4n[nH]c(=O)c5ccccc45)ccc3F)CC2)nc1` [Example 190, 6-(4-(2-fluoro-5-((4-oxo-3,4-dihydrophthalazin-1-yl)oxy)benzoyl)piperazin-1-yl)nicotinonitrile], the GI50 in assay [1] (6 days, CellTiter-Glo) lay within 1000 to 5000 nM. The IC50 in assay [2] was in the range of 100 to 500 nM.
For the compound `CC#Cc1ccc2c(=O)[nH]nc(C(C)OCCC(=O)N3CCN(c4ncc(C(F)(F)F)cn4)CC3)c2c1` (centres unmarked) [Example 192, 4-(1-(3-Oxo-3-(4-(5-(trifluoromethyl)pyrimidin-2-yl)piperazin-1-yl)propoxy)ethyl)-6-(prop-1-ynyl)phthalazin-1(2H)-one], the 50% growth inhibitory concentration (GI50) in assay [1] (6 days, CellTiter-Glo) is 100 to 1000 nM. For the same compound, in assay [2], the half-inhibitory concentration (IC50) is below 50 nM.
For `CC#Cc1ccc2c(=O)[nH]nc(Cc3ccc(F)c(C(=O)N4CCC(F)(c5ccc(C#N)cn5)CC4)c3)c2c1` [Example 67, 6-(4-Fluoro-1-(2-fluoro-5-((4-oxo-7-(prop-1-yn-1-yl)-3,4-dihydrophthalazin-1-yl)methyl)benzoyl)piperidin-4-yl)nicotinonitrile] the same measures were 1000 to 5000 nM and 50 to 100 nM.
Regarding `N#Cc1ccc(N2CCN(C(=O)c3cc(Cc4n[nH]c(=O)c5ccc(NCCC(F)(F)F)cc45)ccc3F)CC2)nc1` [Example 33, 6-(4-(2-Fluoro-5-((4-oxo-7-((3,3,3-trifluoropropyl)amino)-3,4-dihydrophthalazin-1-yl)methyl)benzoyl)piperazin-1-yl)nicotinonitrile], the GI50 in assay [1] (6 days, CellTiter-Glo) fell in the range of 1000 to 5000 nM. Also, in assay [2], the IC50 is below 50 nM.
Turning to `CC#CCOc1ccc2c(=O)[nH]nc(Cc3ccc(F)c(C(=O)N4CCN(c5ccc(C#N)cn5)CC4)c3)c2c1` [Example 19, 6-(4-(5-((7-(But-2-ynyloxy)-4-oxo-3,4-dihydrophthalazin-1-yl)methyl)-2-fluorobenzoyl)piperazin-1-yl)nicotinonitrile], the 50% growth inhibitory concentration (GI50) in assay [1] (6 days, CellTiter-Glo) lay in the range of 100 to 1000 nM. Also, the IC50 in assay [2] is below 50 nM.
With `N#Cc1ccc(N2CCN(C(=O)c3cccc(Cc4n[nH]c(=O)c5ccc(Cl)cc45)c3)CC2)nc1` [Example 5, 6-(4-(3-((7-Chloro-4-oxo-3,4-dihydrophthalazin-1-yl)methyl)benzoyl)piperazin-1-yl)nicotinonitrile], the 50% growth inhibitory concentration (GI50) in assay [1] was 100 to 1000 nM.
For `N#Cc1ccc(N2CCN(C(=O)c3cc(Cc4n[nH]c(=O)c5ccc(S(=O)(=O)C6CC(F)(F)C6)cc45)ccc3F)CC2)nc1` [Example 54, 6-(4-(5-((7-((3,3-Difluorocyclobutyl)sulfonyl)-4-oxo-3,4-dihydrophthalazin-1-yl)methyl)-2-fluorobenzoyl)piperazin-1-yl)nicotinonitrile], the IC50 in assay [2] was 500 to 2000 nM.
Take `O=C(NC1CN(c2ncc(C(F)(F)F)cn2)C1)c1cc(Cc2n[nH]c(=O)c3ccc(OC4CCC4)cc23)ccc1F` [Example 205, 5-((7-Cyclobutoxy-4-oxo-3,4-dihydrophthalazin-1-yl)methyl)-2-fluoro-N-(1-(5-(trifluoromethyl)pyrimidin-2-yl)azetidin-3-yl)benzamide]: the 50% inhibitory concentration (IC50) in assay [2] was above 2000 nM.
Take `N#Cc1ccc(N2CCN(C(=O)c3cccc(Cc4n[nH]c(=O)c5ccc(Oc6ccccc6)cc45)c3)CC2)nc1` [Example 2, 6-(4-(3-((4-Oxo-7-phenoxy-3,4-dihydrophthalazin-1-yl)methyl)benzoyl)piperazin-1-yl)nicotinonitrile]: the concentration for 50% growth inhibition (GI50) in assay [1] is below 100 nM.
Regarding `CC#Cc1ccc2c(=O)[nH]nc(Cc3ccc(F)c(C(=O)N(C)Cc4nnc(C(F)(F)F)o4)c3)c2c1` [Example 202, 2-Fluoro-N-methyl-5-((4-oxo-7-(prop-1-ynyl)-3,4-dihydrophthalazin-1-yl)methyl)-N-((5-(trifluoromethyl)-1,3,4-oxadiazol-2-yl)methyl)benzamide], the IC50 in assay [2] is 100 to 500 nM.
As to `N#Cc1ccc(N2CCN(C(=O)c3cc(Cc4n[nH]c(=O)c5ccc(CC(F)(F)F)cc45)ccc3F)CC2)nc1` [Example 183, 6-(4-(2-Fluoro-5-((4-oxo-7-(2,2,2-trifluoroethyl)-3,4-dihydrophthalazin-1-yl)methyl)benzoyl)piperazin-1-yl)nicotinonitrile], the IC50 in assay [2] is below 50 nM.
As to `CN(c1nccc(C(F)(F)F)n1)C1CN(C(=O)c2cc(Cc3n[nH]c(=O)c4ccc(OC5CCC5)cc34)ccc2F)C1` [Example 120, 6-cyclobutoxy-4-(4-fluoro-3-(3-(methyl(4-(trifluoromethyl)pyrimidin-2-yl)amino)azetidine-1-carbonyl)benzyl) phthalazin-1(2H)-one], the IC50 in assay [2] is 500 to 2000 nM.
Regarding `CNC(=O)c1ccnc(N(C)C2CN(C(=O)c3cc(Cc4n[nH]c(=O)c5ccc(OC6CCC6)cc45)ccc3F)C2)n1` [Example 108, 2-((1-(5-((7-cyclobutoxy-4-oxo-3,4-dihydrophthalazin-1-yl)methyl)-2-fluorobenzoyl)azetidin-3-yl)(methyl)amino)-N-methylpyrimidine-4-carboxamide], in assay [2], the IC50 is 100 to 500 nM.
With `N#Cc1cncc(N2CCN(C(=O)c3cc(Cc4n[nH]c(=O)c5ccc(OC6CCC6)cc45)ccc3F)CC2)c1` [Example 141, 5-(4-(5-((7-cyclobutoxy-4-oxo-3,4-dihydrophthalazin-1-yl)methyl)-2-fluorobenzoyl)piperazin-1-yl)nicotinonitrile], the IC50 in assay [2] fell in the range of 50 to 100 nM.
On to `CNC(=O)c1ccnc(N(C)C2CN(C(=O)c3cc(Cc4n[nH]c(=O)c5ccc(OC6CCC6)cc45)ccc3F)C2)c1` [Example 123, 2-((1-(5-((7-cyclobutoxy-4-oxo-3,4-dihydrophthalazin-1-yl)methyl)-2-fluorobenzoyl)azetidin-3-yl)(methyl)amino)-N-methylisonicotinamide], for which the IC50 in assay [2] was 500 to 2000 nM.
In the case of `CC#Cc1ccc2c(=O)[nH]nc(Cc3ccc(F)c(C(=O)N4CCN(C(=O)CCC(F)(F)F)CC4)c3)c2c1` [Example 57, 4-(4-Fluoro-3-(4-(4,4,4-trifluorobutanoyl)piperazine-1-carbonyl)benzyl)-6-(prop-1-ynyl)phthalazin-1(2H)-one], the IC50 in assay [2] is below 50 nM.
On the same count and under the same terms, the result for `CN(C(=O)C1CCN1)C1CN(C(=O)c2cc(Cc3n[nH]c(=O)c4ccc(OC5CCC5)cc34)ccc2F)C1` (centres unmarked) [Example 117, N-(1-(5-((7-cyclobutoxy-4-oxo-3,4-dihydrophthalazin-1-yl)methyl)-2-fluorobenzoyl)azetidin-3-yl)-N-methylazetidine-2-carboxamide] reads 500 to 2000 nM.
In the case of `N#Cc1ccc(N2CCN(C(=O)c3cccc(Cc4n[nH]c(=O)c5ccc(F)cc45)c3)CC2)nc1` [Example 6, 6-(4-(3-((7-Fluoro-4-oxo-3,4-dihydrophthalazin-1-yl)methyl)benzoyl)piperazin-1-yl)nicotinonitrile], in assay [1], the 50% growth inhibitory concentration (GI50) was 100 to 1000 nM.
Regarding `O=C(c1cc(Cc2n[nH]c(=O)c3ccc(OC4CCC4)cc23)ccc1F)N1CC(Nc2ncc(C(F)(F)F)cn2)C1` [Example 102, 6-Cyclobutoxy-4-(4-fluoro-3-(3-((5-(trifluoromethyl)pyrimidin-2-yl)amino)azetidine-1-carbonyl)benzyl)phthalazin-1(2H)-one], in assay [2], the IC50 was in the range of 50 to 100 nM.
Turning to `O=C(c1cc(Cc2n[nH]c(=O)c3ccc(OC4CCC4)cc23)ccc1F)N1CCC2C1CCN2c1ncc(C(F)(F)F)cn1` (centres unmarked) [Example 103, 6-Cyclobutoxy-4-(4-fluoro-3-(4-(5-(trifluoromethyl)pyrimidin-2-yl)octahydropyrrolo[3,2-b]pyrrole-1-carbonyl)benzyl)phthalazin-1(2H)-one], the IC50 in assay [2] was 50 to 100 nM.

(Values after patent US20260055079A1, “PHTHALAZINONE COMPOUNDS AS PARP7 INHIBITORS” (AZKARRA THERAPEUTICS, INC., priority 2022, published 2026).)
